“Also recorded” adds a separate entry of the source. Like-named read-outs stand apart in the source and are kept apart here.
Assays:
Format in all cases: cell-based
[1] = tested on: IL17A-dependent gene expression in mouse keratinocytes; assay: IL17A-dependent gene expression in mouse keratinocytes (RT-qPCR, secondary assay, FIG. 11); conditions: 10 μM compound, 5 ng/ml IL17A, 24 hours
Protocol: Mouse keratinocytes were cultured and stimulated with 5 ng/ml IL17A for 24 hours. During the treatment, 10 μM of each compound was added, and reverse transcription-quantitative polymerase chain reaction (RT-qPCR) was used for the gene expression level analyses of the following genes: cxcl1, cxcl2, cxcl5, 24p3, zc3h12a, S100a8, and S100a9. The top-down order of the treatment conditions indicated in the legend correspond to the left-right order of the bars for each gene. […] Compounds C770-0711 (2), C770-0720 (3), 60546479 (6), C881-0413 (9), and LAS 51593897 (11) are also of interest (see grey boxes).

[2] = molecular target: T1, IL-17 receptor (the IL-17RA-IL-17RC heterodimer) (Mus musculus, UniProt Q60943+Q8K4C2, F156E); assay: IL-17A-receptor (IL-17RA/IL-17RC) GFP reporter cell screen; conditions: for IC50 / Emax: reducing IL-17A-receptor reporter activities; for IC50: GFP percentage by microscope, 48 hours; for Emax: maximal effect at high compound concentrations; for specificity for IL-17A-receptor reporter over other cytokine receptor reporters: in words
T1 sequence (Q60943 32-358): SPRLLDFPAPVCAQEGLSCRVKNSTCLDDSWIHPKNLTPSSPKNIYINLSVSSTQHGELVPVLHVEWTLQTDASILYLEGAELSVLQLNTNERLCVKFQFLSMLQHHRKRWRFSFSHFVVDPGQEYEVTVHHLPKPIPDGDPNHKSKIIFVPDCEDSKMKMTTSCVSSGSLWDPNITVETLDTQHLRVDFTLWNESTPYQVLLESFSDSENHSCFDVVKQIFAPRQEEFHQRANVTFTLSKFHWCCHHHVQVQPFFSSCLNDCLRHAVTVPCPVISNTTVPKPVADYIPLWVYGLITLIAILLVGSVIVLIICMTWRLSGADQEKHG
T1 sequence (Q8K4C2 22-500 F156E): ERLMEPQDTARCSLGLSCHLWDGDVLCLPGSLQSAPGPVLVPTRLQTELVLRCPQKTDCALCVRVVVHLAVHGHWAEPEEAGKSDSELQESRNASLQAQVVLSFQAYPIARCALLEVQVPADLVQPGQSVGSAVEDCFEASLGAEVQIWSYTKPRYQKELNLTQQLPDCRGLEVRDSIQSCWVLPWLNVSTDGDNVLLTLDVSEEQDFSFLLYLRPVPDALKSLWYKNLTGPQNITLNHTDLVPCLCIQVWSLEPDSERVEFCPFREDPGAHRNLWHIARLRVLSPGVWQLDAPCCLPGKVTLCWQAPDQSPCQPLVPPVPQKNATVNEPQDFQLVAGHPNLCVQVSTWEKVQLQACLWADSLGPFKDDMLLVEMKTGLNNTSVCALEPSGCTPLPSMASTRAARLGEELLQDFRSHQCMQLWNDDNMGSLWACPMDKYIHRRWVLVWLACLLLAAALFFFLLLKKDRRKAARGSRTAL
T1 sequence (Q62386 26-158 partner): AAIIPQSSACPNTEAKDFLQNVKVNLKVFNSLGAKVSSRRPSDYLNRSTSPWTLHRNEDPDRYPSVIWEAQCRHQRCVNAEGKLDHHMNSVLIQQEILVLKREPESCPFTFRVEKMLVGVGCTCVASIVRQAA
Protocol: (§1) FIG. 5 is a dot plot showing the identification of small-molecule compounds that reduce IL-17A or TNF-a receptor activities. Small-molecule screens were performed with 114,665 compounds. Individual compounds were added to IL-17A-reporters or TNF-a-reporters following the addition of respective ligands such as IL-17A or TNF-a (25 ng/ml). The reporter cells were then incubated for additional 48 hours before subjecting them for microscopic analyses (GFP percentage was measured by microscope). Anti-IL17A and anti-TNFa antibodies were used as the positive controls.
To identify small molecule compounds that control IL-17R activity, a screening platform was used to monitor IL-17a binding to its receptor. Upon IL-17a binding to its receptor subunit A (IL-17RA), another receptor subunit IL-17RC is recruited, and these two subunits form a heterodimer. In the exemplary reporter system, a transcription factor (tTA) was tethered, via a protease cleavage site, to IL-17RA. In addition, a tobacco etch virus (TEV) protease was fused to the receptor subunit IL-17RC. Upon the IL-17a-dependent recruitment of IL-17RC-TEV to IL-17RA-tTA, the tTA is cleaved off from its membrane anchor IL-17RA. The released tTA then enters the nucleus and activates the reporter gene (e.g., in this case, GFP). The IL-17RA/RC reporter system responds highly selectively to IL-17a, but not to other related IL-17 family cytokines (except IL-17f).
(§2) Two thousand reporter cells per well (384-well plates) were seeded in 30 ul cell culture medium with either IL-17A (25 ng/ml, unless otherwise indicated) or TNFa ligand (25 ng/ml, unless otherwise indicated); additional screens were performed with IL-17A at 7.5 ng/ml. Then 100 nl of the individual compound was added by a pin transfer and cultured for two days in a CO2 incubator. For the cell viability test, 10 ul HOECHST 33342 was added and incubated for 10 min, followed by the addition of 10 ul 4% PFA. After a 10 min incubation, the reporter cells were washed twice with phosphate-buffered saline (PBS) and kept in 30 ul PBS. The images were acquired and analyzed using an IMAGEXPRESS confocal microscope. For storage, plates were sealed with black light-absorbing films.

[3] = molecular target: T2, TNF-a receptor (TNF-R1 reporter cells) (Homo sapiens, UniProt P19438); assay: TNF-a-receptor GFP reporter cell screen; conditions: reducing TNF-a-receptor reporter activities; for IC50: GFP percentage by microscope, 48 hours; for Emax: maximal effect at high compound concentrations
T2 construct: expressed in transfected cells; development described in WO2022125865A2
Protocol: as §1
The IL-17RA/IL-17RC reporter system was used to identify the IL-17a-specific immune modulatory agents, as described herein (see e.g., compounds (1)-(16)). Furthermore, the IL-17A systems and methods were applied to generate other cytokine/cytokine receptor reporter system (tTA fused onto one receptor subunit via a protease cleavage site, TEV fused to another receptor subunit, optimal linkers inserted between different proteins to ensure high signal-to-background ratio; e.g., for identifying TNF-α-specific immune modulatory agents). The screening platform provided herein was used to identify immune modulatory agents including, but not limited to, small molecules and proteins that modulate IL-17A or TNF-α cytokine signaling.
as §2

Compound	IC50 [3] [nM]	Emax [3] [%]	also measured
CCN1CCOc2ccccc2CCCC2(CN(C(=O)c3cc(-c4ccccc4F)no3)CCO2)C1=O (racemic) [Compound 11]	–	–	effect on IL17A-dependent gene expression [1]: robust inhibitory effects
CCc1ccc(S(=O)(=O)c2c(C(=O)c3ccccc3)cnc3ccc(CC)cc23)cc1 [Compound 1]	–	–	IC50 [2]: 4.81 µM; Emax [2]: 78%
CCOc1ccc(S(=O)(=O)c2c(C(=O)c3ccc(C)c(C)c3)cnc3ccccc23)cc1 [Compound 2]	–	–	effect on IL17A-dependent gene expression [1]: inhibitory activities; IC50 [2]: 31.4 µM; Emax [2]: 82%
CCOc1ccc(S(=O)(=O)c2c(C(=O)c3ccc(CC)cc3)cnc3ccc(C)cc23)cc1 [Compound 3]	–	–	effect on IL17A-dependent gene expression [1]: inhibitory activities; IC50 [2]: 12.2 µM; Emax [2]: 44%
CCc1ccc(S(=O)(=O)c2c(C(=O)c3ccc(C)c(C)c3)cnc3ccccc23)cc1 [Compound 5]	–	–	IC50 [2]: 6.83 µM; Emax [2]: 57%
O=C(Nc1ccc(Cl)cc1Cl)c1cc(S(=O)(=O)N2CCCCCC2)ccc1F [Compound 7]	–	–	IC50 [2]: 15 µM; Emax [2]: 57%
CCOC(=O)c1ccc(NC(=O)CCc2c(C)nc3c(c(C)nn3C)c2C)cc1 [Compound 8]	–	–	effect on IL17A-dependent gene expression [1]: inhibitory activities; also recorded: robust inhibitory effects; specificity for IL-17A-receptor reporter over other cytokine receptor reporters [2]: reduce IL-17A-, not TNF-a-, receptor reporter activities; Emax ([2]; read-out: Emax): 94%
Cc1ccc(NC(=O)Cn2cc3c(n2)CCCC3)cc1Cl [Compound 9]	–	–	effect on IL17A-dependent gene expression [1]: inhibitory activities; also recorded: robust inhibitory effects; specificity for IL-17A-receptor reporter over other cytokine receptor reporters [2]: reduce IL-17A-, not TNF-a-, receptor reporter activities; Emax ([2]; read-out: Emax): 67%
COc1cccc(CNC(=O)CSC2=Nc3ccccc3N=C(c3ccc(F)cc3)C2)c1 [Compound 12]	6300	32	–
COCCn1ccnc1CN(CCO)CCCOc1ccc(Cl)cc1Cl [Compound 13]	1950	42	–
CCc1ccccc1NC(=O)CN1C(=O)COc2ccc(S(=O)(=O)Nc3ccccc3)cc21 [Compound 16]	1580	75	–
CN(Cc1ccc2nonc2c1)C(=O)C(c1ccc(F)cc1)N1CCCCC1 (centres unmarked) [Compound 17]	1460	66	–
O=C(CSC1=Nc2ccccc2N=C(c2ccc(F)cc2)C1)NCc1ccc(F)cc1 [Compound 23]	5300	76	–
COc1cccc(-c2nn(-c3ccccc3)cc2CN2CCC(NC(C)=O)C2)c1 (centres unmarked) [Compound 24]	610	75	–
O=C(NCCNC(=O)C(c1ccc(F)cc1)N1CCCCC1)c1ccccc1Cl (centres unmarked) [Compound 25]	1670	52	–
CC(C)CN1CCc2[nH]cnc2C12CCN(C(=O)c1cccc(F)c1)CC2 [Compound 27]	2160	66	–
Cc1ccc(Cn2c(CNS(=O)(=O)c3ccc(Cl)s3)nc3cccnc32)cc1 [Compound 34]	860	64	–

Compound	IC50 [3] [nM]	Emax [3] [%]	also measured
COc1cc(NC(=O)C(Cc2ccccc2)NS(=O)(=O)c2cccs2)cc(OC)c1 (centres unmarked) [Compound 35]	2560	97	–
CCOC(=O)c1ccccc1NC(=O)N1CCCN(S(=O)(=O)c2ccc3c(ccn3CC)c2)CC1 [Compound 36]	7720	92	–
COc1ccc(NC(=O)C(NS(=O)(=O)c2cccc3nsnc23)c2ccccc2)cc1 (centres unmarked) [Compound 38]	3990	91	–
O=C(NC1(CN2CCOCC2)CCCCC1)c1ccccc1N1CCOCC1 [Compound 40]	2160	76	–
CS(=O)(=O)c1ccc(C2(C(=O)N3CCSCC3)CCCCC2)cc1 [Compound 41]	5890	98	–
Cc1ccc(Cn2c(CNS(=O)(=O)c3ccc(F)c(Cl)c3)nc3cccnc32)cc1 [Compound 45]	1300	67	–
O=C(NCc1cccc(Cl)c1)C1(Cc2cscn2)CC2CCC1N2 (centres unmarked) [Compound 48]	3620	68	–
COc1cc(CN2CCCC(CNC(=O)COc3ccccc3OC)C2)ccc1F (centres unmarked) [Compound 49]	791	87	–
Oc1cccc(CN2CCCC(NCc3cc(-c4ccccc4)no3)C2)c1 (centres unmarked) [Compound 51]	823	85	–
CCCN(C/C=C/c1ccccc1)C(=O)CCc1cc2n(n1)CCCNC2 [Compound 52]	8450	90	–
CC(C)Oc1ccccc1-c1cccc(C(=O)NCCc2nncn2C)c1 [Compound 57]	2340	47	–
COc1ccc(NC(=O)CSc2nc3ccccc3n2CC(=O)N(C)C2CCCCC2)cc1 [Compound 60]	6980	88	–
CC(C)C1N=C2c3ccccc3N=C(SCC(=O)NCc3ccc(F)cc3)N2C1=O (centres unmarked) [Compound 61]	8780	88	–
O=c1n(Cc2cccc3ccccc23)nc(C2CCCNC2)n1-c1ccccc1 (centres unmarked) [Compound 62]	1820	60	–
CC(C)(CO)CNC1CC(C)(C)Cc2c1cnn2-c1cccc(F)c1 (centres unmarked) [Compound 63]	1780	65	–
COc1cc(C(=O)NCCc2csc3nc(-c4ccccc4C)nn23)cc(OC)c1OC [Compound 64]	4850	93	–
O=C(c1ccccc1OC(F)(F)C(F)F)N1CCNC(=O)C12CCCC2 [Compound 76]	1360	64	–

From US20250248980A1, “IMMUNE MODULATORY AGENTS” (PRESIDENT AND FELLOWS OF HARVARD COLLEGE, priority 2022, published 2025)
